Patent US20170240522A1, “BENZOTHIOPHENE, BENZYLOXYBENZYLIDENE AND INDOLINE DERIVATIVES USEFUL FOR THE TREATMENT OF TUBERCULOSIS” (priority 2014, published 2017)
Where two headings read alike, the source gives them in different places.

Experiments:
[1] = test system: ESX-1; assay: ESX-1 inhibitory activity of inhibitors of mycobacterium virulence (Table VII); type: cell-based, Mycobacterium tuberculosis
[2] = test system: EsxA; type: cell-based, Mycobacterium tuberculosis
[3] = test system: Ag85 complex proteins; type: cell-based, Mycobacterium tuberculosis
[4] = test system: MRC-5 lung fibroblasts; assay: Fibroblast survival assay (FSA); type: cell-based; conditions: Homo sapiens, MRC5; read-out: IC50 of protection of fibroblasts
[5] = test system: Mtb-Erdman; assay: Growth of Mtb in 7H9 broth; type: cell-based, Mycobacterium tuberculosis; conditions: 25 μM
[6] = test system: several other mycobacteria and non-mycobacterial pathogens; assay: REMA assay of non-Mtb strains; type: cell-based
[7] = test system: Mtb expressing GFP in infected fibroblasts; type: cell-based, Mycobacterium tuberculosis; conditions: compound concentration 5 μM (FIG. 2D)
[8] = test system: Mtb transcriptome; assay: RNA-seq and qRT-PCR of compound-treated Mtb; type: cell-based, Mycobacterium tuberculosis
Protocol: For the transcriptomic studies, bacteria were grown under the same conditions as for protein secretion assays. Drug exposure time was 8 hours with 5 μM of compound for RNA-seq experiments and confirmatory qRT-PCR. RNA was extracted with Trizol (Invitrogen) and treated with DNase I (Roche) prior to library preparation or generation of the cDNA template. cDNA was synthesized using the RevertAid First Strand cDNA Synthesis Kit (Fermentas) using random hexamer primer. cDNA corresponding to 10 ng of input RNA was used in each RT-PCR reaction supplemented with specific primer pairs (200 nM each) listed in Table S4 and SYBR-Green master mix (Applied Biosystems). Quantitative RT-PCR reactions were performed with the 7900HT Fast Real-Time PCR System (Applied Biosystems) with the following parameters: 50° C. for 2 min, 95° C. for 10 min, followed by 40 cycles of 95° C. for 15 s and 60° C. for 60 s. Melt curve analysis was used to confirm specific amplification for each primer pair. Unpaired Student's T-tests were used for statistical analyses.
For the RNA-seq library preparation 100 ng of total RNA were used in the TruSeq Stranded mRNA LT kit, according to the instructions provided by the manufacturer (Illumina). A small aliquot was analyzed on Qubit and Fragment Analyzer prior to sequencing on Illumina HiSeq using the TruSeq SR Cluster Generation Kit v3 and TruSeq SBS Kit v3. Data were processed with the Illumina Pipeline Software v1.82. RNA-seq data were deposited in the Gene Expression Omnibus (GEO) server at the National Center for Biotechnology Information (NCBI).
• All analyses in this study were carried out using the M. tuberculosis H37Rv annotation from the TubercuList database (http://tuberculist.epfl.ch/) (Lew et al., 2011). There are 4019 protein coding sequences (CDS) currently annotated in the genome, 73 genes encoding for stable RNAs, small RNAs and tRNAs. In order to quantify protein occupancy and transcription across the entire genome, 3080 intergenic regions (regions flanked by two non-overlapping CDS) were included, resulting in a total of 7172 features. • The single-ended sequence reads generated from RNA-seq experiments were aligned to the M. tuberculosis H37Rv genome (NCBI accession NC_000962.2) using Bowtie2 with default parameters (Langmead and Salzberg, 2012). Read counts for all annotated features were obtained with the htseq-count program (http://www.huber.embl.de/users/anders/HTSeq/doc/count.html). Regions where genes overlapped were excluded from counting. Reads spanning more than one feature were counted for each feature. Since the RNA library was strand-specific, the orientation of sequence reads had to correspond to the orientation of annotated features to be counted. Analysis of differential gene expression was carried out using the DESeq package (Anders and Huber, 2010).

[9] = molecular target: T1, MprB (Mycobacterium tuberculosis, UniProt P9WGL1); assay: MprB autophosphorylation assay; type: biochemical
T1 construct: MprB lacking its N-terminal transmembrane domain was incubated with [γ-32P]ATP; His6; made in house; host or cells: E. coli BL21 (DE3), vector pQE80L
T1 sequence (P9WGL1 185-504 limits assumed): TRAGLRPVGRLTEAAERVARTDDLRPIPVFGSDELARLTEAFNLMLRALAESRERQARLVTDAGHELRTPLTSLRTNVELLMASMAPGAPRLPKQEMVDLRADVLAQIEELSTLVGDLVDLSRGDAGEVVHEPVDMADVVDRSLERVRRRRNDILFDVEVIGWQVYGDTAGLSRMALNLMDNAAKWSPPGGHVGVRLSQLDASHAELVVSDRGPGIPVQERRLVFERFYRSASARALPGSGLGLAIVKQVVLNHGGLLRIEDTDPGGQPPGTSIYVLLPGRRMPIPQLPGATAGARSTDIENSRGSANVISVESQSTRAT

[10] = test system: mycobacterial outer membrane permeability; assay: Ethidium bromide (EtBr) uptake assay; type: cell-based, Mycobacterium tuberculosis; conditions: 10 μM
Protocol: (§1) Bacteria were grown for 24 hours in the presence of test compounds. The BacTiter-Glo microbial cell viability reagent (Promega) was used for the quantification of ATP according to the recommendations of the manufacturer. For EtBr uptake assays, bacteria were washed with PBS containing 0.05% Tween 80, OD600 was adjusted to 0.4 and 100 μl were pipetted into black 96 well plates. EtBr was added (4 μM final concentration) and fluorescence was read every 2 min. at 545/600 nm. Unpaired Student's T-tests were used for statistical analyses.
To investigate whether BBH7 alters mycobacterial outer membrane permeability, which might explain the transcriptomic pattern associated with metal-ion toxicity, the Applicant performed ethidium bromide (EtBr) uptake assays after treatment with the compounds of interest. These assays identify altered outer membrane permeability by an increase of fluorescence after binding of EtBr to bacterial nucleic acids. […] This was not observed with BTP15.

[11] = test system: ATP-levels of Mtb; assay: Quantification of intracellular ATP levels; type: cell-based, Mycobacterium tuberculosis; conditions: 10 μM, 24 hours
Protocol: as §1

[12] = test system: Mtb-infected THP-1 macrophages; type: cell-based, human
[13] = test system: THP-1 macrophages; assay: Survival of Mtb-infected activated THP-1 macrophages; type: cell-based, human; conditions: activated THP-1, higher MOI, 10 μM
[14] = test system: Mtb-GFP inside activated THP-1 cells; type: cell-based, Mycobacterium tuberculosis; conditions: activated THP-1, 10 μM
[15] = test system: GroEL
Protocol: In brief, 30 ml of bacteria grown to mid-logarithmic phase (OD600 of 0.6 to 0.7) in Sauton's medium supplemented with 0.05% Tween 80 were centrifuged and resuspended in Sauton's medium without Tween. Compounds were added at concentrations as indicated and cells were grown further at 37° C. with shaking for 4 days. Cultures were harvested by centrifugation to obtain culture filtrates and cell pellets. Culture filtrates were concentrated 100-fold in 5-kDa cutoff Vivaspin columns (Sartorius). Cell lysates were prepared by bead beating bacterial pellets in lysis buffer with 100-μm glass beads.
For immunoblot analysis, 5 μg of protein were resolved by SDS-gel electrophoresis and transferred to nitrocellulose membranes. Membranes were blocked with TBS-buffer (3% milk powder) and incubated overnight with the desired primary antibody diluted in TNT-buffer supplemented with 1% BSA fraction V. Membranes were washed with TNT, incubated with the appropriate secondary antibody in TNT-BSA, washed again with TNT, and developed. GroEL2 was used as a lysis control for culture filtrates and as a loading control for cell lysates.

NC(=O)Nc1sc2cc(O)c(Br)cc2c1C(N)=O [D70865]
Activity [1]: 77%

NC(=O)c1c(NC(=O)Nc2cccc(C(F)(F)F)c2)sc2cc(O)ccc12 [D39321]
Activity [1]: 45%

C/C(=N\NC(=S)Nc1ccc(F)c(Cl)c1)c1ccc(OCc2ccccc2)cc1 [D23251]
Activity [1]: 34%

O=S(=O)([O-])[O-].[Zn+2] [zinc, ZnSO4]
secretion of EsxA ([2]; 500 μM zinc): sixfold increase
Ag85 secretion ([3]; media containing elevated levels of ZnSO4): remained unchanged

CC(=O)Oc1cc2sc(NC(N)=O)c(C(N)=O)c2cc1Br [D71014]
Activity [1]: 90%

CNC(=O)Nc1sc2c(C(C)C)cc(N)cc2c1C(N)=O [D63134]
Activity [1]: 26%

CSC(=S)N/N=C(\C)c1ccc(OCc2ccc(Br)cc2)cc1 [D22671]
Activity [1]: 51%

CSC(=S)N/N=C(\C)c1ccc(OCc2cccc(F)c2)cc1 [D22672]
Activity [1]: 94%

CSC(=S)N/N=C(\C)c1ccc(OCc2cccc([N+](=O)[O-])c2)cc1 [D22663]
Activity [1]: 47%

COC(=O)c1cccc(NC(=O)Nc2sc3c(Cl)c(OC(C)=O)c(Cl)cc3c2C(N)=O)c1 [D58298]
Activity [1]: 33%

C/C(=N\NC(=S)Nc1cccc(Cl)c1Cl)c1ccc(OCc2ccccc2)cc1 [D23579]
Activity [1]: 75%

CC(=O)Oc1c(Cl)cc2c(C(N)=O)c(NC(=O)Nc3cccc(CN(C)C)c3)sc2c1Cl [D58845]
Activity [1]: 87%

CC(C)c1ccc(NC(=O)Nc2sc3cc(O)ccc3c2C(N)=O)cc1 [D39317]
Activity [1]: 33%

NC(=O)c1c(NC(=O)C2CC2)sc2cc(O)c(Br)cc12 [BTP15, 5 -Bromo-2-(cyclopropanecarbonyl-amino)-6-hydroxy-benzo[b]thiophene-3-carboxylic acid amide]
IC50 [4]: 1.2 µM
growth inhibition of Mtb [5]: no growth inhibition
MIC99 [6]: > 100 µM
GFP fluorescence of Mtb in infected fibroblasts [7]: comparable to the untreated control
EsxA secretion [2]: dose-dependent secretion inhibition
EsxA secretion ([2]; 20 μM): blocked EsxA secretion fully
Ag85 secretion ([3]; 20 μM): reduced Ag85 secretion
Ag85 secretion ([3]; concentrations ≦10 μM): only slightly affected at best
significantly downregulated genes (number) ([8]; RNA-seq, 5 μM): 18 genes
differentially regulated genes (number) ([8]; RNA-seq, 5 μM, 8 hours): 35 genes
differential regulation (upregulation) of espA ([8]; qRT-PCR): > 2 fold
downregulation of DosR/MprAB associated genes ([8]; qRT-PCR): > 1.5 fold
mprA expression ([8]; qRT-PCR, after 24 and 48 hours of drug treatment): significantly down-regulated
MprB auto-phosphorylation [9]: dose-dependent inhibition
EtBr accumulation and fluorescence [10]: not observed
mycobacterial ATP levels [11]: no impact
rate of bacteria in acidic compartments (Lysotracker Red co-localization) [12]: significantly higher rate
protection of THP-1 cells from Mtb-induced cell death [13]: protected THP-1 cells from Mtb-induced cell death
intracellular bacterial load [14]: greatly reduced the intracellular bacterial load
Activity [1]: 92%
GroEL in the culture filtrate (cell lysis) ([15]; BBH7 and BTP15 treatment): not observed

CCc1cc(C(N)=S)ccn1 [ethionamide, reference compound]
EsxA secretion [2]: no effect
GroEL in the culture filtrate (cell lysis) ([15]; 5× MIC): cell lysis

CC(=O)Oc1c(Cl)cc2c(C(N)=O)c(NC(=O)Nc3ccc(C(C)C)cc3)sc2c1Cl [D51275]
Activity [1]: 41%

CSC(=S)N/N=C(\C)c1ccc(OCc2ccc([N+](=O)[O-])cc2)cc1 [D22647]
Activity [1]: 30%

NNC(=O)c1ccncc1 [Isoniazid, reference compound]
EsxA secretion ([2]; 0.5× MIC): no effect
GroEL in the culture filtrate (cell lysis) ([15]; 5× MIC): cell lysis

CC[C@@H](CO)NCCN[C@@H](CC)CO [ethambutol, reference compound]
EsxA secretion ([2]; 0.5× MIC): no effect
GroEL in the culture filtrate (cell lysis) ([15]; 5× MIC): cell lysis

CC(=O)Nc1ccc(/C=N/NC(N)=S)cc1 [thiacetazone, reference compound]
EsxA secretion ([2]; 0.5× MIC): no effect
GroEL in the culture filtrate (cell lysis) ([15]; 5× MIC): cell lysis

[Cu] [copper]
EsxA secretion ([2]; elevated concentrations of copper): no effect

CSC(=S)N/N=C(\C)c1ccc(OCc2cccc(Cl)c2)cc1 [D22646]
Activity [1]: 76%

CSc1ccc(NC(=O)Nc2sc3cc(O)ccc3c2C(N)=O)cc1 [D38979]
Activity [1]: 60%

COc1ccc([N+](=O)[O-])cc1COc1ccc(/C(C)=N/NC(=S)SC)cc1 [D22648]
Activity [1]: 65%

NC(=O)c1c(NC(=O)Nc2ccc(F)c(Cl)c2)sc2c(Cl)c(O)c(Cl)cc12 [D49399]
Activity [1]: 33%

Nc1ncnc2c1ncn2[C@@H]1O[C@H](COP(=O)(O)OP(=O)(O)NP(=O)(O)O)[C@@H](O)[C@H]1O [AMP-PNP]
MprB auto-phosphorylation ([9]; 1 mM): no effect
phosphohistidine signal of MprB ([9]; 10 mM): only incomplete reduction

COc1ccc(CNCC(O)COc2ccc3c(C(N)=O)c(NC(=O)C4CC4)sc3c2)cc1 (stereo not drawn) [D45756]
Activity [1]: 32%

CC(=O)Oc1cc2sc(NC(=O)C3CC3)c(C(N)=O)c2cc1Br [D70866]
Activity [1]: 80%

CNC(=O)Nc1sc2c(Cl)c(O)c(Cl)cc2c1C(N)=O [D60166]
Activity [1]: 55%

NC(=O)c1c(NC(=O)Nc2cccc(Cl)c2)sc2cc(O)ccc12 [D39322]
Activity [1]: 40%

CSC(=S)N/N=C(\C)c1ccc(OCc2cccc(Br)c2)cc1 [D22670]
Activity [1]: 67%
